Data on four molecules can be found in the kinase profiling compilation of Christmann-Franck et al. (2016).

A word on the residual activity: it is the signal under treatment as a percentage of the control signal.

Assay in all cases: radiometric filter-binding kinase assay, Kinaseprofiler
Experiment [1] relates to BLK (human), P51451 [M278V]. Particulars: ATP 45 µM.
For experiment [2], the system named is FLT4 (human), P35916 [V1128L/H1146R]. Conditions: ATP 200 µM.
In experiment [3] the test system is HIPK2 (human), Q9H2X6 [I471N]. Conditions: ATP 10 µM.
For experiment [4], the system named is MET (human), P08581 [A1209G/V1290L]. Particulars: ATP 45 µM.
For experiment [5], the system named is PAK2 (human), Q13177 [L150F, P225T, V383I; A339 del]. Conditions: ATP 90 µM.
For experiment [6], the system named is PRKD1 (human), Q15139 [R135A]. Conditions: ATP 45 µM.
Experiment [7] has as its system TGFBR1 (human), P36897 [T204D]. Particulars: ATP 10 µM.

Sequence of TGFBR1 (human), P36897 [T204D] (P36897 whole entry T204D, looked up): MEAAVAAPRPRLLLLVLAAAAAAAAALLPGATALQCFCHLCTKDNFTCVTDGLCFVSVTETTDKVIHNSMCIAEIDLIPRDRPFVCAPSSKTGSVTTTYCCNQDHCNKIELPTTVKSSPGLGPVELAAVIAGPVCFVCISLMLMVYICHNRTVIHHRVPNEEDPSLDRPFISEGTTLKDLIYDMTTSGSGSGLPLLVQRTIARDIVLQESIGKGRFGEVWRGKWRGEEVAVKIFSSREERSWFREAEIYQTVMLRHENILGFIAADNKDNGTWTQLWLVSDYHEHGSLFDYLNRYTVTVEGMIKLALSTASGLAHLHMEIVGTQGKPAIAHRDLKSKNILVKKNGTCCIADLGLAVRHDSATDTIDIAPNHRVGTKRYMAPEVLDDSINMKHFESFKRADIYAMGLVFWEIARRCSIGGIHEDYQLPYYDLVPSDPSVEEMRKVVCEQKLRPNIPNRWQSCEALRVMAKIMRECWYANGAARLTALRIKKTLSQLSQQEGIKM
Sequence of PRKD1 (human), Q15139 [R135A] (Q15139 whole entry, looked up, stated change not applied): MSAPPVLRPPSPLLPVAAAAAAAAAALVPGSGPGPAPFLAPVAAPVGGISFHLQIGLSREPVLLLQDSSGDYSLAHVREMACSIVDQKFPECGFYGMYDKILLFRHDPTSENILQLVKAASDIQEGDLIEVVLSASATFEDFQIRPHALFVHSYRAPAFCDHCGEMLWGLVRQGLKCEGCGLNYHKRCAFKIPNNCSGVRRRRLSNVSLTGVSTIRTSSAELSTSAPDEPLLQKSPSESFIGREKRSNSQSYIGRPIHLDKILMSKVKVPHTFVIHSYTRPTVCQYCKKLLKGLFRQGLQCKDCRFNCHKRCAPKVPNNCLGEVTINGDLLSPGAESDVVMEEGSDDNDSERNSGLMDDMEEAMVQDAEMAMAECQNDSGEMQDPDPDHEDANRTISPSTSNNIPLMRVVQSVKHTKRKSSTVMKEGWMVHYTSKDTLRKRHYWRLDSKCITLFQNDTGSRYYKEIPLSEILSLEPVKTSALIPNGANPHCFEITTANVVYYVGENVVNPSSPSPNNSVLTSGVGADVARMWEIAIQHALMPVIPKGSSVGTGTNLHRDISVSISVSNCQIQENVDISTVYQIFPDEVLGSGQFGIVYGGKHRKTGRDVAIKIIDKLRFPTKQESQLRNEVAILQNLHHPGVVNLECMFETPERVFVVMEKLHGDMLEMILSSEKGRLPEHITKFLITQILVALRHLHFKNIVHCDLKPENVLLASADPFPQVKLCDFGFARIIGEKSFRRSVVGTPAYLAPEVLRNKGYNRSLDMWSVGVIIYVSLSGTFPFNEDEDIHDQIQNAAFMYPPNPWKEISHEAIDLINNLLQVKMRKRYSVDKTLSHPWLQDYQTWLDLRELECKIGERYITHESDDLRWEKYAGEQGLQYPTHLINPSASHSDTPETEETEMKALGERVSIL
Sequence of BLK (human), P51451 [M278V] (P51451 whole entry, looked up, stated change not applied): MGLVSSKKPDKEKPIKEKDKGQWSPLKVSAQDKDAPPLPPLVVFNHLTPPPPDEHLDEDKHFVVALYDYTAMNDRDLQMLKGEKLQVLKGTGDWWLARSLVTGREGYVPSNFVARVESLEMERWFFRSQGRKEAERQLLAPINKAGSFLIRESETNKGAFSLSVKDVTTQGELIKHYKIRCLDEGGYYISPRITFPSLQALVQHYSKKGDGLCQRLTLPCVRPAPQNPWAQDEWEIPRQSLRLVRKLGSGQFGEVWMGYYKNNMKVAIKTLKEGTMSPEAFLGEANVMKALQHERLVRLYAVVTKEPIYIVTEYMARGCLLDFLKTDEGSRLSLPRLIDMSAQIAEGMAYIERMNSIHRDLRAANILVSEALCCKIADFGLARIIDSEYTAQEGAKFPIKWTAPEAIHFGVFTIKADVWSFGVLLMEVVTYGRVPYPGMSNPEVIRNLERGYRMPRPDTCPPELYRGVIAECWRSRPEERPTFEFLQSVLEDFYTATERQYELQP
Sequence of HIPK2 (human), Q9H2X6 [I471N] (Q9H2X6 whole entry, looked up, stated change not applied): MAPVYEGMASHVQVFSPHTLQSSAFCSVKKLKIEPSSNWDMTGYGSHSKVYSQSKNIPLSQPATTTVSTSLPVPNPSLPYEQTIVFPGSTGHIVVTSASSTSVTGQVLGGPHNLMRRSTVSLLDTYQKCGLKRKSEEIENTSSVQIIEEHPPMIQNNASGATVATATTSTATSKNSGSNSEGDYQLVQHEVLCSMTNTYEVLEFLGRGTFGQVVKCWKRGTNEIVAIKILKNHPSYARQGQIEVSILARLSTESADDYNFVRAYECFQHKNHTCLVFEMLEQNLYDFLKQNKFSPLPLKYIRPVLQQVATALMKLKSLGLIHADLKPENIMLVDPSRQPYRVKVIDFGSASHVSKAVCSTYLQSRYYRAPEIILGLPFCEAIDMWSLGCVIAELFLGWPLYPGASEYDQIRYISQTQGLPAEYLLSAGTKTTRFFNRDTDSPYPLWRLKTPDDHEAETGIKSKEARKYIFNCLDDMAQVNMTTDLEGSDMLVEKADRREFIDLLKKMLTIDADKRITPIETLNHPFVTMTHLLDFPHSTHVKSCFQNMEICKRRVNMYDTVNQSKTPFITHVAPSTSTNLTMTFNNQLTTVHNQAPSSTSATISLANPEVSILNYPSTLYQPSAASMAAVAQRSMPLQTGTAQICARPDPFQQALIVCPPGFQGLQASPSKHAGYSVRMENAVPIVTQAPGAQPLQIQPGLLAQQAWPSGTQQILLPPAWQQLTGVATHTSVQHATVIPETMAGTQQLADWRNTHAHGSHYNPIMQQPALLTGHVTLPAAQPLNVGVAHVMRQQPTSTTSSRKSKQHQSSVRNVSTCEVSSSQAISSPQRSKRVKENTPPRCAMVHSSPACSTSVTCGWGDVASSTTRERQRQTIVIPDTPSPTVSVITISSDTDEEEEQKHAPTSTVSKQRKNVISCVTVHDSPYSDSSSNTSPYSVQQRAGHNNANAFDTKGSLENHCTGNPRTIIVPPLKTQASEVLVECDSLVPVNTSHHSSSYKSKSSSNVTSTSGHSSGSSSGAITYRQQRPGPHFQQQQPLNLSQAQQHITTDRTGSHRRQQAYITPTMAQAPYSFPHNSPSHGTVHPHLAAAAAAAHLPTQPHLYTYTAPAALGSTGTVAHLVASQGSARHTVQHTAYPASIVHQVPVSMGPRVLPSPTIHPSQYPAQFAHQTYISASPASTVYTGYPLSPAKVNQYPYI
Sequence of FLT4 (human), P35916 [V1128L/H1146R] (P35916 whole entry, looked up, stated change not applied): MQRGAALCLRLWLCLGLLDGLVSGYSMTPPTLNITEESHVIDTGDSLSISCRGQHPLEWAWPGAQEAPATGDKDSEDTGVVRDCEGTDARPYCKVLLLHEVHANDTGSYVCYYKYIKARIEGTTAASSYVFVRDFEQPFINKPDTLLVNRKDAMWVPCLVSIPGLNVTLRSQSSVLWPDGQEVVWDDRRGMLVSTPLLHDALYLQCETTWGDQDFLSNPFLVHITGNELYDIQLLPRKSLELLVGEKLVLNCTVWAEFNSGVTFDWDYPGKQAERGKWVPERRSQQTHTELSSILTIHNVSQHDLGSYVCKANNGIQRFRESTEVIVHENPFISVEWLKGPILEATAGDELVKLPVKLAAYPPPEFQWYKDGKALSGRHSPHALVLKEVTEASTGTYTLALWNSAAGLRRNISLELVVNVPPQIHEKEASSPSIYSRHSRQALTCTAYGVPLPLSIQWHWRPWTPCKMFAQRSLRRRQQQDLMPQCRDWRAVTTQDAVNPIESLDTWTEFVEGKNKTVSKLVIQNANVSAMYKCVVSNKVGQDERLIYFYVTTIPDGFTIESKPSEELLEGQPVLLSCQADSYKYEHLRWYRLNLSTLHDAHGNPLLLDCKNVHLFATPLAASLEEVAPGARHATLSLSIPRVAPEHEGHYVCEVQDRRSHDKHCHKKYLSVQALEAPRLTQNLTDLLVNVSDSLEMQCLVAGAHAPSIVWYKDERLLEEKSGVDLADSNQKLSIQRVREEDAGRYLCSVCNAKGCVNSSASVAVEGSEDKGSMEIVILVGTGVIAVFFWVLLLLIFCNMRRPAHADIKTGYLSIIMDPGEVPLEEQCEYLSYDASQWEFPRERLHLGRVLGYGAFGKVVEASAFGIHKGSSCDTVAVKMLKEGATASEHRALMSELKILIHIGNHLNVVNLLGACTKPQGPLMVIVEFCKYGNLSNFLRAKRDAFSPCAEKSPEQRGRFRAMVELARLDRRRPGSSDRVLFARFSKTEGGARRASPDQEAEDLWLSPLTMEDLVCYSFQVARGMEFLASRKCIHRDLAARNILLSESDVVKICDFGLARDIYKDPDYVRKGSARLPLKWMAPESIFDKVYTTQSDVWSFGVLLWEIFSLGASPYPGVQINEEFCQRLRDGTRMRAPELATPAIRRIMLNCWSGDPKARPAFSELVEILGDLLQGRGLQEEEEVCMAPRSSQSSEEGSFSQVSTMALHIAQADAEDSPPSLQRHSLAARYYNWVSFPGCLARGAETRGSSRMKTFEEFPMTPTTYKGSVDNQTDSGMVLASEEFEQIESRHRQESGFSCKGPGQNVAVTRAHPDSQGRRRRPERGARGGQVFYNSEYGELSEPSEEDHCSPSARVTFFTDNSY
Sequence of PAK2 (human), Q13177 [L150F, P225T, V383I; A339 del] (Q13177 whole entry, looked up, stated change not applied): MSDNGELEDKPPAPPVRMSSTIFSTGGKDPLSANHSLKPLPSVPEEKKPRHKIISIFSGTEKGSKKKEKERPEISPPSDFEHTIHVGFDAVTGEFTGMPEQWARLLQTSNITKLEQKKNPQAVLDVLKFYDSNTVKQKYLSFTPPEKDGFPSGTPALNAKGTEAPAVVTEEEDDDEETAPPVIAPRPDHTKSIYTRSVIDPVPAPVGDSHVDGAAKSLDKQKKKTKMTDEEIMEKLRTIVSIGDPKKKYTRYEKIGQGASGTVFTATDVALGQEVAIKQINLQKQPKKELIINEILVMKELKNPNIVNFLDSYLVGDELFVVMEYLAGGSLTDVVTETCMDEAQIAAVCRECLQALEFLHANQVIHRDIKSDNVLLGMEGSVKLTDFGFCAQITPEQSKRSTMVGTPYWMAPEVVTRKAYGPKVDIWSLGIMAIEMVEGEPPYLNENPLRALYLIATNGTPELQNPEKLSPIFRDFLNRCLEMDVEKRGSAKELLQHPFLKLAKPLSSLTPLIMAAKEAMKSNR

With `O=C1Nc2ccccc2/C1=C1\Nc2ccccc2\C1=N/O`, the residual activity is 11% in experiment [1] (compound 1.0 µM); 0% in experiment [1] (compound 10.0 µM); -1% in experiment [2] (compound 1.0 µM); 1% in experiment [2] (compound 10.0 µM); 48% in experiment [3] (compound 1.0 µM); 8% in experiment [3] (compound 10.0 µM). For the same molecule, the residual activity was determined as 86% in experiment [4] (compound 1.0 µM); 13% in experiment [4] (compound 10.0 µM); 103% in experiment [5] (compound 1.0 µM); 54% in experiment [5] (compound 10.0 µM); 113% in experiment [6] (compound 1.0 µM); 65% in experiment [6] (compound 10.0 µM). Besides, the figures for the residual activity in experiment [7] (compound 1.0 µM) and in experiment [7] (compound 10.0 µM) were 104% and 73%, respectively.
For `O=C(Nc1cccc(Nc2nccc(Nc3cccc(C(F)(F)F)c3)n2)c1)C1CC1`, the residual activity in experiment [5] (compound 1.0 µM) stood at 100%.
Turning to `CN[C@@H]1C[C@H]2O[C@@](C)([C@@H]1OC)n1c3ccccc3c3c4c(c5c6ccccc6n2c5c31)C(=O)NC4`, in experiment [3] (compound 1.0 µM), the residual activity was found to be 52%.
Turning to `O=C1c2ccccc2-c2n[nH]c3cccc1c23`, the residual activity in experiment [1] (compound 1.0 µM) came out at 97%; in experiment [1] (compound 10.0 µM), 45%; in experiment [2] (compound 1.0 µM) it was 2%; in experiment [2] (compound 10.0 µM), 0%; in experiment [3] (compound 1.0 µM), 55%; in experiment [3] (compound 10.0 µM) it was 15%. The residual activity is 87% in experiment [4] (compound 1.0 µM); 75% in experiment [4] (compound 10.0 µM); 96% in experiment [5] (compound 1.0 µM); 86% in experiment [5] (compound 10.0 µM); 32% in experiment [6] (compound 1.0 µM); -1% in experiment [6] (compound 10.0 µM). In addition, the figures for the residual activity in experiment [7] (compound 1.0 µM) and in experiment [7] (compound 10.0 µM) were 88% and 74%, respectively.
